# Test results reported in PubChem BioAssay AID180 (DTP/NCI, 2004).
# System: BDF1 mice, Adenocarcinoma 755 s.c., tumor weight T/C
# Assay: NCI In Vivo Anticancer Drug Screen. Data for tumor model Adenocarcinoma 755 (subcutaneous) in B6D2F1 (BDF1) mice
# Settings: endpoint: mean tumor weight, higher = larger tumour
# Method in brief: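 Tumor-bearing mice receive test compound while controls get vehicle alone. Antitumor effect is scored from survival or tumor dimensions as a T/C quotient.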
# [1] = dose: 15.0 mg/kg/injection, schedule: Q01DX011 (ip), vehicle: methylcellulose (MC)
# [2] = dose: 31.0 mg/kg/injection, schedule: Q01DX011 (ip), vehicle: methylcellulose (MC)
# [3] = dose: 62.0 mg/kg/injection, schedule: Q01DX011 (ip), vehicle: methylcellulose (MC)
# [4] = dose: 125.0 mg/kg/injection, schedule: Q01DX011 (ip), vehicle: methylcellulose (MC)
# [5] = dose: 250.0 mg/kg/injection, schedule: Q01DX011 (ip), vehicle: methylcellulose (MC)
smiles,measurement,setting,value
Cn1c(N)nc2nc[nH]c2c1=S,T/C,"dose: 4.0 mg/kg/injection, schedule: Q01DX011 (oral), vehicle: carboxymethylcellulose (CMC)",114 % of control
same,T/C,"dose: 4.0 mg/kg/injection, schedule: Q01DX011 (oral), vehicle: saline",91 % of control
same,T/C,"dose: 5.0 mg/kg/injection, schedule: Q01DX011 (ip), vehicle: methylcellulose (MC)",4 % of control
same,T/C,"dose: 6.0 mg/kg/injection, schedule: Q01DX011 (ip), vehicle: methylcellulose (MC)",5 % of control
same,T/C,"dose: 7.0 mg/kg/injection, schedule: Q01DX011 (ip), vehicle: methylcellulose (MC)",4 % of control
same,T/C,"dose: 8.0 mg/kg/injection, schedule: Q01DX011 (oral), vehicle: carboxymethylcellulose (CMC)",112 % of control
same,T/C,"dose: 8.0 mg/kg/injection, schedule: Q01DX011 (oral), vehicle: saline",92 % of control
same,T/C,"dose: 16.0 mg/kg/injection, schedule: Q01DX011 (oral), vehicle: carboxymethylcellulose (CMC)",119 % of control
same,T/C,"dose: 16.0 mg/kg/injection, schedule: Q01DX011 (oral), vehicle: saline",80 % of control
same,T/C,"dose: 32.0 mg/kg/injection, schedule: Q01DX011 (oral), vehicle: carboxymethylcellulose (CMC)",203 % of control
same,T/C,"dose: 32.0 mg/kg/injection, schedule: Q01DX011 (oral), vehicle: saline",86 % of control
same,T/C,"dose: 64.0 mg/kg/injection, schedule: Q01DX011 (oral), vehicle: carboxymethylcellulose (CMC)",151 % of control
same,T/C,"dose: 64.0 mg/kg/injection, schedule: Q01DX011 (oral), vehicle: saline",120 % of control
same,T/C,"dose: 500.0 mg/kg/injection, schedule: Q01DX011 (oral), vehicle: carboxymethylcellulose (CMC)",85 % of control
same,T/C,"dose: 750.0 mg/kg/injection, schedule: Q01DX011 (oral), vehicle: carboxymethylcellulose (CMC)",90 % of control
same,T/C,"dose: 310.0 micrograms/kg/injection, schedule: Q01DX011 (ip), vehicle: methylcellulose (MC)",32 % of control
same,T/C,"dose: 625.0 micrograms/kg/injection, schedule: Q01DX011 (ip), vehicle: methylcellulose (MC)",64 % of control
same,T/C,"dose: 1000.0 micrograms/kg/injection, schedule: Q01DX011 (ip), vehicle: methylcellulose (MC)",3 % of control
same,T/C,"dose: 1250.0 micrograms/kg/injection, schedule: Q01DX011 (ip), vehicle: methylcellulose (MC)",18 % of control
same,T/C,"dose: 2000.0 micrograms/kg/injection, schedule: Q01DX011 (ip), vehicle: methylcellulose (MC)",3 % of control
same,T/C,"dose: 2500.0 micrograms/kg/injection, schedule: Q01DX011 (ip), vehicle: methylcellulose (MC)",4 % of control
same,T/C,"dose: 5000.0 micrograms/kg/injection, schedule: Q01DX011 (ip), vehicle: methylcellulose (MC)",4 % of control
same,T/C,"dose: 7500.0 micrograms/kg/injection, schedule: Q01DX011 (ip), vehicle: methylcellulose (MC)",2 % of control
CCOc1ccccc1Nc1nc(N)nc(Cl)c1CC,T/C,[1],73 % of control
same,T/C,[2],79 % of control
same,T/C,[3],87 % of control
same,T/C,[4],98 % of control
same,T/C,[5],100 % of control
CCOC(=O)c1c(C#N)c(Cl)nc(C)c1[N+](=O)[O-],T/C,"dose: 1.5 mg/kg/injection, schedule: Q01DX011 (ip), vehicle: carboxymethylcellulose (CMC)",60 % of control
same,T/C,"dose: 3.0 mg/kg/injection, schedule: Q01DX011 (ip), vehicle: carboxymethylcellulose (CMC)",70 % of control
C/C(=N\NC(=O)c1ccncc1)c1cc(Cl)ccc1Cl,T/C,"dose: 30.0 mg/kg/injection, schedule: Q01DX011 (ip), vehicle: methylcellulose (MC)",51 % of control
same,T/C,"dose: 60.0 mg/kg/injection, schedule: Q01DX011 (ip), vehicle: methylcellulose (MC)",27 % of control
O=C(O)C(O)C(F)(F)F (centres undefined),T/C,"dose: 31.0 mg/kg/injection, schedule: Q01DX011 (ip), vehicle: other",89 % of control
same,T/C,"dose: 62.5 mg/kg/injection, schedule: Q01DX011 (ip), vehicle: other",82 % of control
same,T/C,"dose: 125.0 mg/kg/injection, schedule: Q01DX011 (ip), vehicle: other",111 % of control
same,T/C,"dose: 250.0 mg/kg/injection, schedule: Q01DX011 (ip), vehicle: other",46 % of control
CSc1ncc(Br)c(SCc2ccc(Cl)cc2Cl)n1,T/C,[1],69 % of control
same,T/C,[2],108 % of control
same,T/C,[5],60 % of control
c1ccc(N2N=C3N(c4ccccc4)C2N3c2ccccc2)cc1,T/C,"dose: 15.0 mg/kg/injection, schedule: Q01DX011 (ip), vehicle: other",87 % of control
CCc1c(Cl)nc(N)nc1Nc1ccccc1C,T/C,[1],115 % of control
same,T/C,[3],88 % of control
same,T/C,[4],114 % of control
same,T/C,[5],94 % of control
